Values joined by “and” are separate entries in the source; they are usually repeats but may differ in a detail not shown here. Equal values may be shown once. Toxic doses and inconclusive results are not listed. Where a SMILES comes first, the peptide text is derived from it. The star is where a group is joined. Boc = CC(C)(C)OC(=O)*
Tested on: B6C3F1 mice, B16 melanoma ip, median survival T/C
Assay: NCI In Vivo Anticancer Drug Screen. Data for tumor model B16 Melanoma (intraperitoneal) in B6C3F1 mice
Settings: endpoint: median survival time, higher = longer survival
Procedure, shortened: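 Readout: survival or tumor size in treated mice relative to vehicle controls (T/C). Model uses transplantable tumors grown in mice.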

[1] = dose: 1.56 mg/kg/injection, schedule: Q01DX009 (ip), vehicle: saline with Tween-80
[2] = dose: 3.12 mg/kg/injection, schedule: Q01DX009 (ip), vehicle: saline with Tween-80
[3] = dose: 6.25 mg/kg/injection, schedule: Q01DX009 (ip), vehicle: saline
[4] = dose: 12.5 mg/kg/injection, schedule: Q01DX009 (ip), vehicle: saline with Tween-80
[5] = dose: 12.5 mg/kg/injection, schedule: Q01DX009 (ip), vehicle: saline
[6] = dose: 25.0 mg/kg/injection, schedule: Q01DX009 (ip), vehicle: saline
[7] = dose: 25.0 mg/kg/injection, schedule: Q01DX009 (ip), vehicle: saline with Tween-80
[8] = dose: 50.0 mg/kg/injection, schedule: Q01DX009 (ip), vehicle: saline
[9] = dose: 50.0 mg/kg/injection, schedule: Q01DX009 (ip), vehicle: saline with Tween-80
[10] = dose: 100.0 mg/kg/injection, schedule: Q01DX009 (ip), vehicle: saline with Tween-80

## O=NN(CCCl)C(=O)NCCO
dose: 1.5 mg/kg/injection, schedule: Q01DX009 (ip), vehicle: water
  T/C: 102 % of control
dose: 1.56 mg/kg/injection, schedule: Q01DX009 (ip), vehicle: water
  T/C: 122 % of control
dose: 3.0 mg/kg/injection, schedule: Q01DX009 (ip), vehicle: water
  T/C: 104 % of control
dose: 3.12 mg/kg/injection, schedule: Q01DX009 (ip), vehicle: water
  T/C: 189 % of control
dose: 6.0 mg/kg/injection, schedule: Q01DX009 (ip), vehicle: water
  T/C: 105 % of control
dose: 6.25 mg/kg/injection, schedule: Q01DX009 (ip), vehicle: water
  T/C: 201 % of control
dose: 12.0 mg/kg/injection, schedule: Q01DX009 (ip), vehicle: water
  T/C: 109 % of control
dose: 12.5 mg/kg/injection, schedule: Q01DX009 (ip), vehicle: water
  T/C: 194 % of control

## CO[C@@]12[C@@H]3N[C@@H]3CN1C1=C(C(=O)C(NCC3CCCO3)=C(C)C1=O)[C@@H]2COC(N)=O (some centres undefined)
dose: 1.5 mg/kg/injection, schedule: Q04DX003 (ip), vehicle: distilled water + Tween-80
  T/C: 179 % of control
dose: 3.0 mg/kg/injection, schedule: Q04DX003 (ip), vehicle: distilled water + Tween-80
  T/C: 172 % of control and 173 % of control and 178 % of control
dose: 6.0 mg/kg/injection, schedule: Q04DX003 (ip), vehicle: distilled water + Tween-80
  T/C: 179 % of control and 207 % of control and 208 % of control
dose: 12.0 mg/kg/injection, schedule: Q04DX003 (ip), vehicle: distilled water + Tween-80
  T/C: 185 % of control and 223 % of control and 240 % of control
dose: 24.0 mg/kg/injection, schedule: Q04DX003 (ip), vehicle: distilled water + Tween-80
  T/C: 174 % of control and 258 % of control and 326 % of control

## CC1=C(C)C(=O)O[C@@H]([C@](C)(O)[C@]2(O)CC[C@@]3(O)[C@@H]4C[C@H]5O[C@]56CC=CC(=O)[C@]6(C)[C@H]4CC[C@]23C)C1
[1]
  T/C: 121 % of control
[2]
  T/C: 108 % of control
dose: 6.25 mg/kg/injection, schedule: Q01DX009 (ip), vehicle: saline with Tween-80
  T/C: 120 % of control
[3]
  T/C: 120 % of control
[4]
  T/C: 88 % of control
[5]
  T/C: 153 % of control
[6]
  T/C: 175 % of control

## NC(=S)N/N=C\c1ncccc1OCc1cccc(N)c1
dose: 12.5 mg/kg/injection, schedule: Q01DX009 (ip), vehicle: distilled water + Tween-80
  T/C: 86 % of control
[4]
  T/C: 103 % of control
dose: 25.0 mg/kg/injection, schedule: Q01DX009 (ip), vehicle: distilled water + Tween-80
  T/C: 100 % of control
[7]
  T/C: 109 % of control and 113 % of control and 106 % of control
dose: 50.0 mg/kg/injection, schedule: Q01DX009 (ip), vehicle: distilled water + Tween-80
  T/C: 114 % of control
dose: 100.0 mg/kg/injection, schedule: Q01DX009 (ip), vehicle: distilled water + Tween-80
  T/C: 108 % of control
dose: 200.0 mg/kg/injection, schedule: Q01DX009 (ip), vehicle: distilled water + Tween-80
  T/C: 118 % of control
dose: 400.0 mg/kg/injection, schedule: Q01DX009 (ip), vehicle: distilled water + Tween-80
  T/C: 99 % of control
dose: 400.0 mg/kg/injection, schedule: Q01DX009 (ip), vehicle: saline with Tween-80
  T/C: 113 % of control and 121 % of control

## CSCCC(NC(=O)C(CC(C)C)NC(=O)OC(C)(C)C)C(N)=O (stereo not drawn) (Boc-Leu-Met-NH2; configuration not given here)
dose: 50.0 mg/kg/injection, schedule: Q01DX009 (ip), vehicle: Klucel (hydroxypropylcellulose) (HPC)
  T/C: 86 % of control
dose: 100.0 mg/kg/injection, schedule: Q01DX009 (ip), vehicle: Klucel (hydroxypropylcellulose) (HPC)
  T/C: 98 % of control and 102 % of control
dose: 200.0 mg/kg/injection, schedule: Q01DX009 (ip), vehicle: Klucel (hydroxypropylcellulose) (HPC)
  T/C: 97 % of control and 100 % of control
dose: 400.0 mg/kg/injection, schedule: Q01DX009 (ip), vehicle: Klucel (hydroxypropylcellulose) (HPC)
  T/C: 101 % of control

## NC(=O)/C=C/C(=O)c1c(Cl)cccc1Cl
dose: 0.78 mg/kg/injection, schedule: Q01DX009 (ip), vehicle: saline with Tween-80
  T/C: 100 % of control
[1]
  T/C: 103 % of control
[2]
  T/C: 90 % of control

## NCCc1ccc(O)c(O)c1
[8]
  T/C: 96 % of control
dose: 100.0 mg/kg/injection, schedule: Q01DX009 (ip), vehicle: saline
  T/C: 106 % of control [middle of 4 runs]
dose: 200.0 mg/kg/injection, schedule: Q01DX009 (ip), vehicle: saline
  T/C: 109 % of control [middle of 4 runs]
dose: 400.0 mg/kg/injection, schedule: Q01DX009 (ip), vehicle: saline
  T/C: 115 % of control [middle of 4 runs]
dose: 500.0 mg/kg/injection, schedule: Q01DX009 (ip), vehicle: saline
  T/C: 119 % of control
dose: 600.0 mg/kg/injection, schedule: Q01DX009 (ip), vehicle: saline
  T/C: 114 % of control and 112 % of control and 118 % of control
dose: 800.0 mg/kg/injection, schedule: Q01DX009 (ip), vehicle: saline
  T/C: 121 % of control

## O=CN(SSN(C=O)C1CCCCC1)C1CCCCC1
[4]
  T/C: 90 % of control
[7]
  T/C: 106 % of control
[9]
  T/C: 101 % of control
[10]
  T/C: 89 % of control
dose: 200.0 mg/kg/injection, schedule: Q01DX009 (ip), vehicle: saline with Tween-80
  T/C: 97 % of control

## CC(=O)Nc1ccc(N=Nc2c(C)nn(C(=N)N)c2C)cc1
dose: 3.12 mg/kg/injection, schedule: Q01DX009 (ip), vehicle: saline
  T/C: 103 % of control
[3]
  T/C: 99 % of control
[5]
  T/C: 105 % of control
[6]
  T/C: 95 % of control
[8]
  T/C: 101 % of control

## O=C(CCCCCCC(=O)ON1C(=O)CCC1=O)ON1C(=O)CCC1=O
[7]
  T/C: 99 % of control
[9]
  T/C: 96 % of control
[10]
  T/C: 103 % of control

## CC(=O)NO
dose: 50.0 mg/kg/injection, schedule: Q01DX009 (ip), vehicle: water
  T/C: 89 % of control
dose: 100.0 mg/kg/injection, schedule: Q01DX009 (ip), vehicle: water
  T/C: 102 % of control
dose: 200.0 mg/kg/injection, schedule: Q01DX009 (ip), vehicle: water
  T/C: 100 % of control
dose: 400.0 mg/kg/injection, schedule: Q01DX009 (ip), vehicle: water
  T/C: 112 % of control

## C=C1C(O)C2OC3(CCC(/C=C/C(C)C4CC5(C)SC5C5(OC(CC(C)(O)C(=O)O)CCC5O)O4)O3)CCC2OC1C(O)CC(C)C1OC2(CCCCO2)CCC1C (centres undefined)
dose: 1.25 micrograms/kg/injection, schedule: Q01DX009 (ip), vehicle: saline + alcohol
  T/C: 104 % of control
dose: 2.5 micrograms/kg/injection, schedule: Q01DX009 (ip), vehicle: saline + alcohol
  T/C: 111 % of control
dose: 5.0 micrograms/kg/injection, schedule: Q01DX009 (ip), vehicle: saline + alcohol
  T/C: 120 % of control
dose: 20.0 micrograms/kg/injection, schedule: Q01DX009 (ip), vehicle: saline + alcohol
  T/C: 97 % of control

## CCC(C(=O)O)C(=O)O.[NH-]CC1CCCC[N-]1.[Pt+2]
[3]
  T/C: 108 % of control
[5]
  T/C: 102 % of control
dose: 12.5 mg/kg/injection, schedule: Q01DX009 (ip), vehicle: suspension in saline
  T/C: 113 % of control
[6]
  T/C: 101 % of control
dose: 25.0 mg/kg/injection, schedule: Q01DX009 (ip), vehicle: suspension in saline
  T/C: 115 % of control
dose: 50.0 mg/kg/injection, schedule: Q01DX009 (ip), vehicle: suspension in saline
  T/C: 123 % of control

## COC1C(N)C(OC2C(Oc3cccc4c(O)c5c(=O)oc6ccc(C)c7c(=O)oc(c34)c5c67)OC(C)C(O)C2(C)O)OC(C)C1O (centres undefined)
dose: 1.09 mg/kg/injection, schedule: Q01DX009 (ip), vehicle: DMSO
  T/C: 226 % of control
dose: 1.25 mg/kg/injection, schedule: Q01DX009 (ip), vehicle: other
  T/C: 179 % of control
dose: 1.81 mg/kg/injection, schedule: Q01DX009 (ip), vehicle: DMSO
  T/C: 255 % of control
dose: 2.5 mg/kg/injection, schedule: Q01DX009 (ip), vehicle: other
  T/C: 227 % of control
dose: 3.0 mg/kg/injection, schedule: Q01DX009 (ip), vehicle: DMSO
  T/C: 244 % of control
dose: 5.0 mg/kg/injection, schedule: Q01DX009 (ip), vehicle: DMSO
  T/C: 326 % of control
dose: 5.0 mg/kg/injection, schedule: Q01DX009 (ip), vehicle: other
  T/C: 227 % of control
dose: 8.4 mg/kg/injection, schedule: Q01DX009 (ip), vehicle: DMSO
  T/C: 190 % of control
dose: 10.0 mg/kg/injection, schedule: Q01DX009 (ip), vehicle: other
  T/C: 179 % of control

## CCCCCn1c(C)cc(/C=C\c2ccc3cc(C)ccc3[n+]2C)c1C
dose: 39.0 micrograms/kg/injection, schedule: Q01DX009 (ip), vehicle: Klucel (hydroxypropylcellulose) (HPC)
  T/C: 93 % of control
dose: 78.0 micrograms/kg/injection, schedule: Q01DX009 (ip), vehicle: Klucel (hydroxypropylcellulose) (HPC)
  T/C: 95 % of control
dose: 156.0 micrograms/kg/injection, schedule: Q01DX009 (ip), vehicle: Klucel (hydroxypropylcellulose) (HPC)
  T/C: 100 % of control
dose: 312.0 micrograms/kg/injection, schedule: Q01DX009 (ip), vehicle: Klucel (hydroxypropylcellulose) (HPC)
  T/C: 100 % of control
dose: 625.0 micrograms/kg/injection, schedule: Q01DX009 (ip), vehicle: Klucel (hydroxypropylcellulose) (HPC)
  T/C: 96 % of control

Source: PubChem BioAssay AID200 (DTP/NCI, 2004)
